Test results as given in patent US8916565B2, “Pyrrolopyrazine-spirocyclic piperidine amides as modulators of ion channels” (priority 2011, dated 2014).

What follows are compounds tested against human NaV subtype, like NaV 1.7 (Homo sapiens, UniProt Q15858) (assay: E-VIPR optical membrane potential assay with electrical stimulation). Settings: active against one or more sodium channels; Table 3 does not name the assay or NaV subtype; read-out: Binned Activity Data (IC50).
Assay type: cell-based

Sequence of human NaV subtype, like NaV 1.7 (Q15858 whole entry): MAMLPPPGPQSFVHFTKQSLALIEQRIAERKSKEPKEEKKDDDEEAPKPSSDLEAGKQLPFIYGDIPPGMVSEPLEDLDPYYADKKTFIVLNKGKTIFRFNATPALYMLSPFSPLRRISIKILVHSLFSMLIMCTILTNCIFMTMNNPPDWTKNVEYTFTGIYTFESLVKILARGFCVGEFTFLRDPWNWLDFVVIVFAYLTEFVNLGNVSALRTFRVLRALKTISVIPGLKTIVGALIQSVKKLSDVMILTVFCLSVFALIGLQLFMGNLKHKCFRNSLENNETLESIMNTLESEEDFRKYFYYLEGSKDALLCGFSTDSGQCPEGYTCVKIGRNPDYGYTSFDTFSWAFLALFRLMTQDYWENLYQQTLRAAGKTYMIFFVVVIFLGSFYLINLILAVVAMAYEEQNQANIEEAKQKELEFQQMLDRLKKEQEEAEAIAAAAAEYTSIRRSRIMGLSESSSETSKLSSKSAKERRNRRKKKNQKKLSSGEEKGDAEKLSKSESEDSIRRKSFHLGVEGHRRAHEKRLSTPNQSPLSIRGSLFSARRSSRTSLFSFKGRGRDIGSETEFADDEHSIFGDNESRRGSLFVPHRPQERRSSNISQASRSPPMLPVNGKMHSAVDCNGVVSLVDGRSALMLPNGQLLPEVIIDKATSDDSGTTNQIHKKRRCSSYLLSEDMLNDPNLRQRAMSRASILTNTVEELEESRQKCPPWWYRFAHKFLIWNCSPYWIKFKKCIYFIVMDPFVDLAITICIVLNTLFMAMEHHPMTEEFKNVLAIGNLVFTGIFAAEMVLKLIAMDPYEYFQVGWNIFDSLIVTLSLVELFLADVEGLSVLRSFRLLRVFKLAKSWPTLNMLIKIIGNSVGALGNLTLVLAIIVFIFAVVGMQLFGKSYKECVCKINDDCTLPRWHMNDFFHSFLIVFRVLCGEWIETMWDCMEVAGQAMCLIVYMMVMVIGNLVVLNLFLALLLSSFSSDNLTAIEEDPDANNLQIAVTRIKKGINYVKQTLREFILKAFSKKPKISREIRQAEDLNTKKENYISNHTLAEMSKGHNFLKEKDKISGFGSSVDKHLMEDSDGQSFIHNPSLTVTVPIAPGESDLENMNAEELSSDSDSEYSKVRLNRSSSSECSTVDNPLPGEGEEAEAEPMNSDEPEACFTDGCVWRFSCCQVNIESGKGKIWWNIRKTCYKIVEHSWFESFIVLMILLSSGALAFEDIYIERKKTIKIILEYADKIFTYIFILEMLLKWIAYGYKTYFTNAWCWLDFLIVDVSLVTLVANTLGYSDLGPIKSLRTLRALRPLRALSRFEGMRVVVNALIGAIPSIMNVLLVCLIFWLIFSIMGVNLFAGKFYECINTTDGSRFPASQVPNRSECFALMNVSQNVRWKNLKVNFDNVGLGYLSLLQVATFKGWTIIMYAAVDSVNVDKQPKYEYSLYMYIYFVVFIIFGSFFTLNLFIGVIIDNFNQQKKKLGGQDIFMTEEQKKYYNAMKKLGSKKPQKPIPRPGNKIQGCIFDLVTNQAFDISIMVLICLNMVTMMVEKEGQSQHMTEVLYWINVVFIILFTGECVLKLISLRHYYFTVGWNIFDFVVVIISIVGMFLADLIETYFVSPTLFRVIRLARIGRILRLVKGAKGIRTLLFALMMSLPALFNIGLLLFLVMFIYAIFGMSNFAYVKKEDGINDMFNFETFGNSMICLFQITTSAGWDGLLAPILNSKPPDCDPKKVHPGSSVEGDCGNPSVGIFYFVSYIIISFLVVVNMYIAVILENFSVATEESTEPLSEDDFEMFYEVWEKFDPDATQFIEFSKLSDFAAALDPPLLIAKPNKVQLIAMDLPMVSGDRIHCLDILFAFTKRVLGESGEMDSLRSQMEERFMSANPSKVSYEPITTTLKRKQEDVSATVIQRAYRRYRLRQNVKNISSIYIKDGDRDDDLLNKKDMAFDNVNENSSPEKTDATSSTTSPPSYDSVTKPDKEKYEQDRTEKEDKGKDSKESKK

| SMILES | IC50 |
| --- | --- |
| COc1cc(C(=O)N2CCC3(CC2)c2c(Cl)cc(C(F)(F)F)n2CCN3C)ccc1OC(C)C [Compound 9] | ≤ 2 µM |
| Cc1cc(C(=O)N2CCC3(CC2)c2ccc(C(F)(F)F)n2CCN3C2CC2)ccc1OC(C)C [Compound 333] | ≤ 2 µM |
| CNS(=O)(=O)c1ccc(C(=O)N2CCC3(CC2)c2ccc(C(F)(F)C(F)(F)F)n2CCN3C)cc1 [Compound 381] | ≤ 2 µM |
| Cc1nc(C(=O)N2CCC3(CC2)c2ccc(C(=O)C(F)(F)F)n2CCN3C)ccc1OC(C)C [Compound 468] | ≤ 2 µM |
| CC(C)Oc1ccc(C(=O)N2CCC3(CC2)c2ccc(C(=O)C(C)(C)C)n2CCN3C)cc1C(F)(F)F [Compound 617] | ≤ 2 µM |
| Cc1nc(C(=O)N2CCC3(CC2)c2ccc(C(=O)C(F)(F)F)n2CCN3C)ccc1O [Compound 322] | ≤ 2 µM |
| CC(=O)c1ccc2n1C(C)(C)CN(C)C21CCN(C(=O)c2ccc(C3CCCCC3)cc2)CC1 [Compound 361] | ≤ 2 µM |
| COc1ccc(C(=O)N2CCC3(CC2)NCC(C)n2c(C(=O)C(F)(F)F)ccc23)nc1C (stereo not shown) [Compound 503] | ≤ 2 µM |
| COc1cc(C(=O)N2CC[C@@]3(c4ccc(C(F)(F)F)n4CCN3C)[C@H](F)C2)ccc1OC(C)C [Compound 88] | 2 to 5 µM |
| Cc1cc(C(=O)N2CCC3(CC2)c2ccc(C(=O)C(C)(C)C)n2CCN3C)ccc1O [Compound 601] | ≤ 2 µM |
| CC(C)c1cc(C(=O)N2CCC3(CC2)c2ccc(C(=O)C(F)(F)F)n2CCN3C)ccc1O [Compound 50] | ≤ 2 µM |
| Cc1cc(C(=O)N2CCC3(CC2)NCC(C)(C)n2c(C(F)(F)F)ccc23)ccc1OC(C)C [Compound 280] | ≤ 2 µM |
| CC(=O)c1ccc2n1CCN(C)C21CCN(C(=O)c2ccc(OC(C)C)cc2)CC1 [Compound 342] | > 5 µM |
| CNS(=O)(=O)c1ccc(C(=O)N2CCC3(CC2)c2ccc(C(F)(F)F)n2CCN3C)cc1C [Compound 7] | ≤ 2 µM |
| Cc1cc(C(=O)N2CCC3(CC2)c2ccc(C(=O)C4CC4)n2CCN3C)ccc1O [Compound 476] | ≤ 2 µM |
| COc1cc(C(=O)N2CCC3(CC2)c2ccc(C(C)=O)n2CCN3C)ccc1OCCOC(F)(F)F [Compound 541] | ≤ 2 µM |
| Cc1cc(C(=O)N2CCC3(CC2)c2ccc(S(C)(=O)=O)n2CCN3C)ccc1OC(C)C [Compound 542] | > 5 µM |
| CC(=O)c1cc2n(c1)CC(C)(C)NC21CCN(C(=O)c2ccc(OC(C)C)c(C(F)(F)F)c2)CC1 [Compound 139] | > 5 µM |
| Cc1cc(C(=O)N2CCC3(CC2)c2ccc(C(F)(F)F)n2CCN3CC(=O)N(C)C)ccc1OC(C)C [Compound 723] | ≤ 2 µM |
| Cc1cc(C(=O)N2CCC3(CC2)c2ccc(C(F)(F)F)n2CCN3C)ccc1S(=O)(=O)NC1CC1 [Compound 28] | ≤ 2 µM |
| CC(C)Oc1ccc(C(=O)N2CCC3(CC2)c2ccc(C(=O)C(F)(F)F)n2C[C@H](C)N3C)c(F)c1 [Compound 695] | ≤ 2 µM |
| CC(=O)c1cc2n(c1)CC(C)(C)NC21CCN(C(=O)c2ccc(OC(C)C)c(Cl)c2)CC1 [Compound 30] | > 5 µM |
| CC1(C)Cn2c(C(=O)C(F)(F)F)ccc2C2(CCN(C(=O)c3ccc(-c4ccccc4)c(O)c3)CC2)N1 [Compound 218] | > 5 µM |
| COc1cc(C(=O)N2CCC3(CC2)NCC(C)n2c(C(=O)C(F)(F)F)ccc23)ccc1OCCOC(F)(F)F (stereo not shown) [Compound 171] | ≤ 2 µM |
| CCCc1ccc(C(=O)N2CCC3(CC2)c2ccc(C(=O)C(F)(F)F)n2CCN3C)cc1 [Compound 87] | ≤ 2 µM |
